From publication PMC4143601 (Cancer Chemotherapy and Pharmacology, 2014)
Entries after “also recorded” stand apart in the source; their conditions may differ. Read-outs that look alike come from different tables or passages of the source.

Tests used:
advanced solid tumors = assay: Tumor response, best overall response (RECIST version 1.0); type: in vivo, human (Japanese patients)
Description: (§1) The starting dose was 8 mg/m^2, and treatment cycles were 28 days. Intra-patient dose escalation was not permitted. An adaptive Bayesian logistic regression model (BLRM), guided by the escalation with overdose control (EWOC) principle, was used to guide dose escalations. The EWOC principle mandates the potential doses recommended for the next cohort and the estimated MTD have less than 25 % posterior probability of DLT in the excessive toxicity interval (33, 100 %). […] The occurrence of DLTs was evaluated during Cycle 1. A minimum of three patients were enrolled in a cohort, and the estimated MTD was continuously updated using the BLRM, and a minimum of six patients were planned to be enrolled at the MTD level. […] A minimum of 15 patients were required for the BLRM model to determine the MTD. […] Doses were individually adjusted according to body surface area measured at baseline.
(§2) Toxicity was graded according to the National Cancer Institute Common Toxicity Criteria version 3.0. […] Tumor response was assessed by computed tomography or magnetic resonance imaging, and using Response Evaluation Criteria in Solid Tumors version 1.0 for efficacy evaluations.

[1] = Description: Inclusion criteria included Eastern Cooperative Oncology Group performance status ≤2 and life expectancy ≥12 weeks.
as §1, §2
The DDS was used for the BLRM analyses in the determination of MTD.

[2] = Pharmacokinetics of AUY922 and its glucuronide metabolite BJP762 in blood (LC-MS/MS, non-compartmental); type: in vivo, human (Japanese patients with advanced solid tumors); conditions: for half-life / Tmax / AUC(0-inf) / AUC(0-t) / Cmax / clearance / Vd: human; for half-life / Tmax: blood; for Tmax: read-out: T max [median (range)]; for AUC(0-inf) / AUC(0-t) / Cmax / clearance / Vd: whole blood; for Vd: read-out: Vz
Description: Intra-patient dose escalation was not permitted. […] The occurrence of DLTs was evaluated during Cycle 1.

With CCNC(=O)c1noc(-c2cc(C(C)C)c(O)cc2O)c1-c1ccc(CN2CCOCC2)cc1 [AUY922, 5-[2,4-dihydroxy-5-isopropyl-phenyl]-N-ethyl-4-[4-(morpholinomethyl)phenyl]isoxazole-3-carboxamide] the “Best overall response: Complete response” value (advanced solid tumors; 8 mg/m^2 (n = 3)) was 0 n, the “Best overall response: Partial response” value (advanced solid tumors; 8 mg/m^2 (n = 3)) was 0 n and the “Best overall response: Progressive disease” value (advanced solid tumors; 8 mg/m^2 (n = 3)) was 2 n. The “Best overall response: Stable disease” value (advanced solid tumors; 8 mg/m^2 (n = 3)) was 1 n, the “Best overall response: Unknown” value (advanced solid tumors; 8 mg/m^2 (n = 3)) was 0 n and the “Disease control rate (CR + PR + SD)” value (advanced solid tumors; 8 mg/m^2 (n = 3)) was 1 n. The “Overall response rate (CR + PR)” value (advanced solid tumors; 8 mg/m^2 (n = 3)) was 0 n, the “Best overall response: Complete response” value (advanced solid tumors; 16 mg/m^2 (n = 3)) was 0 n and the “Best overall response: Partial response” value (advanced solid tumors; 16 mg/m^2 (n = 3)) was 0 n. For the same compound, the “Best overall response: Progressive disease” value (advanced solid tumors; 16 mg/m^2 (n = 3)) was 2 n, the “Best overall response: Stable disease” value (advanced solid tumors; 16 mg/m^2 (n = 3)) was 1 n and the “Best overall response: Unknown” value (advanced solid tumors; 16 mg/m^2 (n = 3)) was 0 n. For the same compound, the “Disease control rate (CR + PR + SD)” value (advanced solid tumors; 16 mg/m^2 (n = 3)) was 1 n, the “Overall response rate (CR + PR)” value (advanced solid tumors; 16 mg/m^2 (n = 3)) was 0 n and the “Best overall response: Complete response” value (advanced solid tumors; 22 mg/m^2 (n = 3)) was 0 n. The “Best overall response: Partial response” value (advanced solid tumors; 22 mg/m^2 (n = 3)) was 0 n, the “Best overall response: Progressive disease” value (advanced solid tumors; 22 mg/m^2 (n = 3)) was 3 n and the “Best overall response: Stable disease” value (advanced solid tumors; 22 mg/m^2 (n = 3)) was 0 n. For the same compound, the “Best overall response: Unknown” value (advanced solid tumors; 22 mg/m^2 (n = 3)) was 0 n, the “Disease control rate (CR + PR + SD)” value (advanced solid tumors; 22 mg/m^2 (n = 3)) was 0 n and the “Overall response rate (CR + PR)” value (advanced solid tumors; 22 mg/m^2 (n = 3)) was 0 n. The “Best overall response: Complete response” value (advanced solid tumors; 28 mg/m^2 (n = 5)) was 0 n, the “Best overall response: Partial response” value (advanced solid tumors; 28 mg/m^2 (n = 5)) was 0 n and the “Best overall response: Progressive disease” value (advanced solid tumors; 28 mg/m^2 (n = 5)) was 4 n. For the same compound, the “Best overall response: Stable disease” value (advanced solid tumors; 28 mg/m^2 (n = 5)) was 1 n, the “Best overall response: Unknown” value (advanced solid tumors; 28 mg/m^2 (n = 5)) was 0 n and the “Disease control rate (CR + PR + SD)” value (advanced solid tumors; 28 mg/m^2 (n = 5)) was 1 n. For the same compound, the “Overall response rate (CR + PR)” value (advanced solid tumors; 28 mg/m^2 (n = 5)) was 0 n, the “Best overall response: Complete response” value (advanced solid tumors; 40 mg/m^2 (n = 3)) was 0 n and the “Best overall response: Partial response” value (advanced solid tumors; 40 mg/m^2 (n = 3)) was 0 n. The “Best overall response: Progressive disease” value (advanced solid tumors; 40 mg/m^2 (n = 3)) was 2 n, the “Best overall response: Stable disease” value (advanced solid tumors; 40 mg/m^2 (n = 3)) was 1 n and the “Best overall response: Unknown” value (advanced solid tumors; 40 mg/m^2 (n = 3)) was 0 n. The “Disease control rate (CR + PR + SD)” value (advanced solid tumors; 40 mg/m^2 (n = 3)) was 1 n, the “Overall response rate (CR + PR)” value (advanced solid tumors; 40 mg/m^2 (n = 3)) was 0 n and the “Best overall response: Complete response” value (advanced solid tumors; 54 mg/m^2 (n = 6)) was 0 n. The “Best overall response: Partial response” value (advanced solid tumors; 54 mg/m^2 (n = 6)) was 1 n, the “Best overall response: Progressive disease” value (advanced solid tumors; 54 mg/m^2 (n = 6)) was 3 n and the “Best overall response: Stable disease” value (advanced solid tumors; 54 mg/m^2 (n = 6)) was 1 n. For the same compound, the “Best overall response: Unknown” value (advanced solid tumors; 54 mg/m^2 (n = 6)) was 1 n, the “Disease control rate (CR + PR + SD)” value (advanced solid tumors; 54 mg/m^2 (n = 6)) was 2 n and the “Overall response rate (CR + PR)” value (advanced solid tumors; 54 mg/m^2 (n = 6)) was 1 n. The “Best overall response: Complete response” value (advanced solid tumors; 70 mg/m^2 (n = 8)) was 0 n, the “Best overall response: Partial response” value (advanced solid tumors; 70 mg/m^2 (n = 8)) was 0 n and the “Best overall response: Progressive disease” value (advanced solid tumors; 70 mg/m^2 (n = 8)) was 3 n. The “Best overall response: Stable disease” value (advanced solid tumors; 70 mg/m^2 (n = 8)) was 5 n, the “Best overall response: Unknown” value (advanced solid tumors; 70 mg/m^2 (n = 8)) was 0 n and the “Disease control rate (CR + PR + SD)” value (advanced solid tumors; 70 mg/m^2 (n = 8)) was 5 n. For the same compound, the “Overall response rate (CR + PR)” value (advanced solid tumors; 70 mg/m^2 (n = 8)) was 0 n, the “Patients with best overall response of stable disease” value (advanced solid tumors; 70-mg/m^2 cohort, five out of the eight patients) was 63% and the “Best overall response: Complete response” value (advanced solid tumors; Total, all doses (N = 31)) was 0 n (%). For the same compound, the “Best overall response: Partial response” value (advanced solid tumors; Total, all doses (N = 31)) was 1 (3) n (%), the “Best overall response: Progressive disease” value (advanced solid tumors; Total, all doses (N = 31)) was 19 (61) n (%) and the “Best overall response: Stable disease” value (advanced solid tumors; Total, all doses (N = 31)) was 10 (32) n (%). The “Best overall response: Unknown” value (advanced solid tumors; Total, all doses (N = 31)) was 1 (3) n (%), the “Disease control rate (CR + PR + SD)” value (advanced solid tumors; Total, all doses (N = 31)) was 11 (36) n (%) and the “Overall response rate (CR + PR)” value (advanced solid tumors; Total, all doses (N = 31)) was 1 (3) n (%). The “Disease control rate (DCR; PR + SD)” value (advanced solid tumors; across all dose levels) was 36%, the Complete response (advanced solid tumors; all doses) was “no patients achieved a complete response” and the “Patients with confirmed partial response” value (advanced solid tumors; all doses (N = 31), one patient) was 3%. For the same compound, the “Patients with best overall response of stable disease” value (advanced solid tumors; all doses (N = 31), ten patients, SD lasting ≥8 weeks) was 32%, the “Duration of confirmed partial response” value (advanced solid tumors; one patient, rectal carcinoid tumor with lung metastatic lesions, 54 mg/m^2) was greater than 7 months and the “Maximum tolerated dose (MTD)” value ([1]; IV once-weekly, 8–70 mg/m^2 tested) was “No MTD was determined; also recorded: the MTD was not determined; also recorded: The MTD was not established”. For the same compound, the “Diarrhea, AE regardless of relationship to study drug” value ([1]; human, in vivo) was 65%, the “Fatigue, AE regardless of relationship to study drug” value ([1]; human, in vivo) was 29% and the “Nausea, AE regardless of relationship to study drug” value ([1]; human, in vivo) was 29%. The “Night blindness, AE regardless of relationship to study drug” value ([1]; human, in vivo) was 42%, the “Patients with AEs requiring dose modification or interruption” value ([1]; human, in vivo) was 48% and the “Patients with serious AEs (SAEs)” value ([1]; human, in vivo) was 26%. For the same compound, the “Patients who experienced DLTs” value ([1]; human, in vivo, 28 days) was 3.6%, the “Recommended Phase II dose (RP2D)” value ([1]; human, in vivo, iv) was 70 mg/m^2 and the “Patients discontinued as a result of AEs related to study drug” value ([1]; in vivo) was “two patients”. For the same compound, the “Patients with SAEs considered to be related to the study drug” value ([1]; in vivo) was “two patients”, the “Dose proportionality of C max in blood” value ([2]; entire dose range 8–70 mg/m^2) was “generally increased in a dose-proportional manner; also recorded: increased generally in a dose-proportional manner” and the half-life ([2]; intravenous, 8 mg/m2) was 64 h. For the same compound, the half-life ([2]; iv, 28 mg/m2) was 98.7 ± 23 h, the Tmax ([2]; iv, 28 mg/m2) was 0.5 h and the half-life ([2]; iv, 40 mg/m2) was 123 ± 40.8 h. The Tmax ([2]; iv, 40 mg/m2) was 1.05 h, the half-life ([2]; iv, 54 mg/m2) was 120 ± 28.5 h and the Tmax ([2]; iv, 54 mg/m2) was 0.76 h. For the same compound, the half-life ([2]; iv, 70 mg/m2) was 127 ± 18.8 h, the Tmax ([2]; iv, 70 mg/m2) was 1.02 h and the AUC(0-inf) ([2]; iv, 28 mg/m2) was 9550 ng·h/mL. For the same compound, the AUC(0-t) ([2]; iv, 28 mg/m2) was 6810 ng·h/mL, the Cmax ([2]; iv, 28 mg/m2) was 457 ± 101 ng/mL and the clearance ([2]; iv, 28 mg/m2) was 79.8 mL/min. It also gave a Vd ([2]; iv, 28 mg/m2) of 646 ± 111 L, an AUC(0-inf) ([2]; iv, 40 mg/m2) of 11400 ng·h/mL and an AUC(0-t) ([2]; iv, 40 mg/m2) of 6960 ng·h/mL. The Cmax ([2]; iv, 40 mg/m2) was 710 ± 42 ng/mL, the clearance ([2]; iv, 40 mg/m2) was 95.7 mL/min and the Vd ([2]; iv, 40 mg/m2) was 980 ± 132 L. The AUC(0-inf) ([2]; iv, 54 mg/m2) was 12300 ng·h/mL, the AUC(0-t) ([2]; iv, 54 mg/m2) was 8880 ng·h/mL and the Cmax ([2]; iv, 54 mg/m2) was 1050 ng/mL. The clearance ([2]; iv, 54 mg/m2) was 121 mL/min, the Vd ([2]; iv, 54 mg/m2) was 1190 L and the AUC(0-inf) ([2]; iv, 70 mg/m2) was 12600 ng·h/mL. For the same compound, the AUC(0-t) ([2]; iv, 70 mg/m2) was 8540 ng·h/mL, the Cmax ([2]; iv, 70 mg/m2) was 1100 ng/mL and the clearance ([2]; iv, 70 mg/m2) was 143 mL/min. For the same compound, the Vd ([2]; iv, 70 mg/m2) was 1570 L and the “Dose dependence of AUClast in blood” value ([2]; increased with dose from 8 to 28 mg/m^2) was “saturated at higher dose levels; also recorded: saturated at higher doses”.
